Measurements from the NIST ThermoML archive (doi:10.1016/j.fluid.2008.10.003).
Numbers after ± are expanded uncertainties.

Test: isobaric coefficient of expansion; xn = mol fraction of the nth substance listed
Conditions: calorimetric method

CCCCCCO [hexan-1-ol] + CCCCCC
isobaric coefficient of expansion
Conditions	5000 kPa	10000 kPa	15000 kPa	20000 kPa	25000 kPa	30000 kPa	35000 kPa	40000 kPa	45000 kPa	50000 kPa
328.15 K, x1 = 0.0321	0.00143 ± 6.1e-05 1/K	0.00135 ± 5.7e-05 1/K	0.00128 ± 5.4e-05 1/K	0.00122 ± 5.2e-05 1/K	0.00117 ± 4.9e-05 1/K	0.00112 ± 4.8e-05 1/K	0.00108 ± 4.6e-05 1/K	0.00104 ± 4.4e-05 1/K	0.00101 ± 4.3e-05 1/K	0.000976 ± 4.1e-05 1/K
328.15 K, x1 = 0.041	0.00143 ± 6.1e-05 1/K	0.00135 ± 5.7e-05 1/K	0.00128 ± 5.4e-05 1/K	0.00122 ± 5.2e-05 1/K	0.00117 ± 4.9e-05 1/K	0.00112 ± 4.8e-05 1/K	0.00108 ± 4.6e-05 1/K	0.00103 ± 4.4e-05 1/K	0.001 ± 4.3e-05 1/K	0.000972 ± 4.1e-05 1/K
328.15 K, x1 = 0.0946	0.00141 ± 6e-05 1/K	0.00133 ± 5.6e-05 1/K	0.00126 ± 5.4e-05 1/K	0.0012 ± 5.1e-05 1/K	0.00116 ± 4.9e-05 1/K	0.00111 ± 4.7e-05 1/K	0.00107 ± 4.5e-05 1/K	0.00103 ± 4.4e-05 1/K	0.001 ± 4.2e-05 1/K	0.000972 ± 4.1e-05 1/K
328.15 K, x1 = 0.1679	0.00136 ± 5.8e-05 1/K	0.0013 ± 5.5e-05 1/K	0.00123 ± 5.2e-05 1/K	0.00118 ± 5e-05 1/K	0.00113 ± 4.8e-05 1/K	0.00109 ± 4.6e-05 1/K	0.00105 ± 4.5e-05 1/K	0.00101 ± 4.3e-05 1/K	0.000982 ± 4.2e-05 1/K	0.000952 ± 4e-05 1/K
328.15 K, x1 = 0.2153	0.00134 ± 5.7e-05 1/K	0.00127 ± 5.4e-05 1/K	0.00121 ± 5.1e-05 1/K	0.00116 ± 4.9e-05 1/K	0.00112 ± 4.7e-05 1/K	0.00107 ± 4.6e-05 1/K	0.00104 ± 4.4e-05 1/K	0.000999 ± 4.2e-05 1/K	0.000971 ± 4.1e-05 1/K	0.000945 ± 4e-05 1/K
328.15 K, x1 = 0.3016	0.00129 ± 5.5e-05 1/K	0.00122 ± 5.2e-05 1/K	0.00117 ± 5e-05 1/K	0.00112 ± 4.7e-05 1/K	0.00108 ± 4.6e-05 1/K	0.00104 ± 4.4e-05 1/K	0.00101 ± 4.3e-05 1/K	0.000975 ± 4.1e-05 1/K	0.000948 ± 4e-05 1/K	0.000922 ± 3.9e-05 1/K
328.15 K, x1 = 0.4075	0.00123 ± 5.2e-05 1/K	0.00117 ± 5e-05 1/K	0.00113 ± 4.8e-05 1/K	0.00108 ± 4.6e-05 1/K	0.00104 ± 4.4e-05 1/K	0.00101 ± 4.3e-05 1/K	0.000977 ± 4.1e-05 1/K	0.000948 ± 4e-05 1/K	0.00092 ± 3.9e-05 1/K	0.000894 ± 3.8e-05 1/K
328.15 K, x1 = 0.503	0.00118 ± 5e-05 1/K	0.00113 ± 4.8e-05 1/K	0.00108 ± 4.6e-05 1/K	0.00104 ± 4.4e-05 1/K	0.00101 ± 4.3e-05 1/K	0.000979 ± 4.2e-05 1/K	0.000952 ± 4e-05 1/K	0.000922 ± 3.9e-05 1/K	0.000899 ± 3.8e-05 1/K	0.000877 ± 3.7e-05 1/K
328.15 K, x1 = 0.594	0.00113 ± 4.8e-05 1/K	0.00108 ± 4.6e-05 1/K	0.00105 ± 4.4e-05 1/K	0.00101 ± 4.3e-05 1/K	0.00098 ± 4.2e-05 1/K	0.000949 ± 4e-05 1/K	0.000921 ± 3.9e-05 1/K	0.000893 ± 3.8e-05 1/K	0.000872 ± 3.7e-05 1/K	0.000851 ± 3.6e-05 1/K
328.15 K, x1 = 0.6827	0.00108 ± 4.6e-05 1/K	0.00104 ± 4.4e-05 1/K	0.00101 ± 4.3e-05 1/K	0.000973 ± 4.1e-05 1/K	0.000945 ± 4e-05 1/K	0.000918 ± 3.9e-05 1/K	0.000891 ± 3.8e-05 1/K	0.000865 ± 3.7e-05 1/K	0.000843 ± 3.6e-05 1/K	0.000823 ± 3.5e-05 1/K
328.15 K, x1 = 0.8013	0.00102 ± 4.3e-05 1/K	0.000985 ± 4.2e-05 1/K	0.000957 ± 4.1e-05 1/K	0.000926 ± 3.9e-05 1/K	0.0009 ± 3.8e-05 1/K	0.000874 ± 3.7e-05 1/K	0.00085 ± 3.6e-05 1/K	0.000825 ± 3.5e-05 1/K	0.000808 ± 3.4e-05 1/K	0.000789 ± 3.3e-05 1/K
328.15 K, x1 = 0.8934	0.000972 ± 4.1e-05 1/K	0.000945 ± 4e-05 1/K	0.000917 ± 3.9e-05 1/K	0.000889 ± 3.8e-05 1/K	0.000869 ± 3.7e-05 1/K	0.000845 ± 3.6e-05 1/K	0.000823 ± 3.5e-05 1/K	0.000802 ± 3.4e-05 1/K	0.000783 ± 3.3e-05 1/K	0.000767 ± 3.3e-05 1/K
328.15 K, x1 = 1	0.000929 ± 3.9e-05 1/K	0.0009 ± 3.8e-05 1/K	0.000876 ± 3.7e-05 1/K	0.000854 ± 3.6e-05 1/K	0.000833 ± 3.5e-05 1/K	0.000813 ± 3.4e-05 1/K	0.000794 ± 3.4e-05 1/K	0.000776 ± 3.3e-05 1/K	0.000759 ± 3.2e-05 1/K	0.000745 ± 3.2e-05 1/K
348.15 K, x1 = 0.0321	0.00153 ± 6.5e-05 1/K	0.00141 ± 6e-05 1/K	0.00133 ± 5.6e-05 1/K	0.00126 ± 5.3e-05 1/K	0.00119 ± 5.1e-05 1/K	0.00114 ± 4.8e-05 1/K	0.00109 ± 4.6e-05 1/K	0.00105 ± 4.4e-05 1/K	0.00101 ± 4.3e-05 1/K	0.00098 ± 4.2e-05 1/K
348.15 K, x1 = 0.041	0.00152 ± 6.5e-05 1/K	0.00142 ± 6e-05 1/K	0.00133 ± 5.6e-05 1/K	0.00126 ± 5.3e-05 1/K	0.0012 ± 5.1e-05 1/K	0.00114 ± 4.8e-05 1/K	0.0011 ± 4.6e-05 1/K	0.00105 ± 4.4e-05 1/K	0.00101 ± 4.3e-05 1/K	0.00098 ± 4.2e-05 1/K
348.15 K, x1 = 0.0946	0.00151 ± 6.4e-05 1/K	0.00141 ± 6e-05 1/K	0.00133 ± 5.6e-05 1/K	0.00126 ± 5.3e-05 1/K	0.00119 ± 5.1e-05 1/K	0.00114 ± 4.9e-05 1/K	0.0011 ± 4.7e-05 1/K	0.00105 ± 4.5e-05 1/K	0.00102 ± 4.3e-05 1/K	0.000988 ± 4.2e-05 1/K
348.15 K, x1 = 0.1679	0.00147 ± 6.2e-05 1/K	0.00138 ± 5.8e-05 1/K	0.0013 ± 5.5e-05 1/K	0.00123 ± 5.2e-05 1/K	0.00118 ± 5e-05 1/K	0.00113 ± 4.8e-05 1/K	0.00108 ± 4.6e-05 1/K	0.00104 ± 4.4e-05 1/K	0.001 ± 4.2e-05 1/K	0.000967 ± 4.1e-05 1/K
348.15 K, x1 = 0.2153	0.00144 ± 6.1e-05 1/K	0.00135 ± 5.7e-05 1/K	0.00128 ± 5.4e-05 1/K	0.00122 ± 5.2e-05 1/K	0.00116 ± 4.9e-05 1/K	0.00111 ± 4.7e-05 1/K	0.00107 ± 4.5e-05 1/K	0.00103 ± 4.4e-05 1/K	0.000999 ± 4.2e-05 1/K	0.000968 ± 4.1e-05 1/K
348.15 K, x1 = 0.3016	0.00138 ± 5.8e-05 1/K	0.0013 ± 5.5e-05 1/K	0.00124 ± 5.2e-05 1/K	0.00118 ± 5e-05 1/K	0.00112 ± 4.8e-05 1/K	0.00108 ± 4.6e-05 1/K	0.00104 ± 4.4e-05 1/K	0.00101 ± 4.3e-05 1/K	0.000976 ± 4.1e-05 1/K	0.000944 ± 4e-05 1/K
348.15 K, x1 = 0.4075	0.00132 ± 5.6e-05 1/K	0.00125 ± 5.3e-05 1/K	0.00119 ± 5e-05 1/K	0.00113 ± 4.8e-05 1/K	0.00109 ± 4.6e-05 1/K	0.00105 ± 4.5e-05 1/K	0.00101 ± 4.3e-05 1/K	0.000981 ± 4.2e-05 1/K	0.00095 ± 4e-05 1/K	0.000924 ± 3.9e-05 1/K
348.15 K, x1 = 0.503	0.00126 ± 5.4e-05 1/K	0.0012 ± 5.1e-05 1/K	0.00114 ± 4.9e-05 1/K	0.0011 ± 4.7e-05 1/K	0.00106 ± 4.5e-05 1/K	0.00102 ± 4.3e-05 1/K	0.000989 ± 4.2e-05 1/K	0.000956 ± 4.1e-05 1/K	0.000929 ± 3.9e-05 1/K	0.000904 ± 3.8e-05 1/K
348.15 K, x1 = 0.594	0.00121 ± 5.1e-05 1/K	0.00115 ± 4.9e-05 1/K	0.0011 ± 4.7e-05 1/K	0.00106 ± 4.5e-05 1/K	0.00102 ± 4.3e-05 1/K	0.000993 ± 4.2e-05 1/K	0.00096 ± 4.1e-05 1/K	0.000928 ± 3.9e-05 1/K	0.000904 ± 3.8e-05 1/K	0.000882 ± 3.7e-05 1/K
348.15 K, x1 = 0.6827	0.00116 ± 4.9e-05 1/K	0.00111 ± 4.7e-05 1/K	0.00107 ± 4.5e-05 1/K	0.00103 ± 4.4e-05 1/K	0.000994 ± 4.2e-05 1/K	0.000963 ± 4.1e-05 1/K	0.000933 ± 4e-05 1/K	0.000903 ± 3.8e-05 1/K	0.000881 ± 3.7e-05 1/K	0.000859 ± 3.6e-05 1/K
348.15 K, x1 = 0.8013	0.00109 ± 4.6e-05 1/K	0.00105 ± 4.4e-05 1/K	0.00101 ± 4.3e-05 1/K	0.000979 ± 4.2e-05 1/K	0.000947 ± 4e-05 1/K	0.00092 ± 3.9e-05 1/K	0.000892 ± 3.8e-05 1/K	0.000866 ± 3.7e-05 1/K	0.000845 ± 3.6e-05 1/K	0.000824 ± 3.5e-05 1/K
348.15 K, x1 = 0.8934	0.00104 ± 4.4e-05 1/K	0.001 ± 4.3e-05 1/K	0.00097 ± 4.1e-05 1/K	0.00094 ± 4e-05 1/K	0.000911 ± 3.9e-05 1/K	0.000886 ± 3.8e-05 1/K	0.000862 ± 3.7e-05 1/K	0.000838 ± 3.6e-05 1/K	0.000817 ± 3.5e-05 1/K	0.000797 ± 3.4e-05 1/K
348.15 K, x1 = 1	0.000995 ± 4.2e-05 1/K	0.00096 ± 4.1e-05 1/K	0.000929 ± 3.9e-05 1/K	0.000903 ± 3.8e-05 1/K	0.000875 ± 3.7e-05 1/K	0.000852 ± 3.6e-05 1/K	0.000831 ± 3.5e-05 1/K	0.000808 ± 3.4e-05 1/K	0.000791 ± 3.4e-05 1/K	0.000772 ± 3.3e-05 1/K
